Entries after “also recorded” stand apart in the source; their conditions may differ. Where two headings read alike, the source gives them in different places.
Columns and labels:
DC-SIGN-Fc [1] = target: T1, DC-SIGN-Fc (Homo sapiens, UniProt Q9NNX6); assay: Soluble DC-SIGN-Fc adhesion assay (Fc ELISA)
T1 sequence (Q9NNX6 64-404): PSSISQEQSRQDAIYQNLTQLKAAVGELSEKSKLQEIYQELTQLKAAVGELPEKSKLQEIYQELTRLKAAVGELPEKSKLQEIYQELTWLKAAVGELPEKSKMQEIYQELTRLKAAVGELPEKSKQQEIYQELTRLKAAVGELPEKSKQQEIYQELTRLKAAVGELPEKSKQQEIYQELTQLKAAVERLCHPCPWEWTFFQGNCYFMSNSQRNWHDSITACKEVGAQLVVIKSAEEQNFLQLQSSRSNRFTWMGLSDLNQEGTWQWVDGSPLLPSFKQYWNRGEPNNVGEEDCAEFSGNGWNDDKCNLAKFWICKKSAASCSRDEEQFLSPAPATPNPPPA

mSIGNR1 = mSIGNR1 (Mus musculus, UniProt Q8CJ91); format: cell-based, murine
[2] = target: T2, DC-SIGN expressed by K562 transfectants (Homo sapiens, UniProt Q9NNX6); format: cell-based
T2 construct: expressed in transfected cells; host or cells: K562
T2 sequence (Q9NNX6 1-404): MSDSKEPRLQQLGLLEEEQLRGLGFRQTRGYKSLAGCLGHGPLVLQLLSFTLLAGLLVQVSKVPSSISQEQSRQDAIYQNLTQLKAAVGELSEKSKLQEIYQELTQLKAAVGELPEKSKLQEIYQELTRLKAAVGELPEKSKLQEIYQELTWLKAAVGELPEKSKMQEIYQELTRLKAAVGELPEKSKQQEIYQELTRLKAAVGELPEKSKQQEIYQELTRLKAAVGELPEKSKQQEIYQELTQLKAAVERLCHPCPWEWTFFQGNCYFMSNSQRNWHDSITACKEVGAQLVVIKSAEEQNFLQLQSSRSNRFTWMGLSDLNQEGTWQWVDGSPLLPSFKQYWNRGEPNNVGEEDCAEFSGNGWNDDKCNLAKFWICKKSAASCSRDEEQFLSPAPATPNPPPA

DC-SIGN-Fc [3] = target: T1, DC-SIGN-Fc; assay: Immunoprecipitation and detection with DC-SIGN-Fc; format: binding; details: immunoprecipitation
Text: FIG. 59. […] Cell-surface proteins are biotinylated and PMNs are lysed. Lane 1. negative control using ICAM-3 Fc to capture by IP proteins. Detection is peroxidase-labeled streptavidin. Lane 2. DC-SIGN-Fc is used to capture ligands biotinylated ligands from lysate; two protein bands are visible, the upper band consists of CD11b and CD66a, whereas the lower consists of CD18. Lane 3. Negative control; no bands are immune precipitated with anti-DC-SIGN antibodies. Lane 4, IP with antibodies against CD66acd; a faint band is visible containing CD66a. Lane 5, IP of CD11b; two bands are visible; the upper band is […] and the lower band is CD18m, which is co-immuneprecipitated with […]. Lane 6. IP with DC-SIGN ligands and detection with anti-CD66acd; CD66a is captured by DC-SIGN Fc. Lane 7. IP with DC-SIGN ligands and detection with anti-CD11b; CD11b is captured by DC-SIGN Fc. Lane 8. Negative control, IP with anti-DC-SIGN antibodies and detection with DC-SIGN-Fc. Lane 9. IP with anti-CD66acd and detection with DC-SIGN Fc; CD66a is bound by DC-SIGN on blot. Lane 10. IP with anti-CD11a and detection with DC-SIGN Fc; CD11a is bound by DC-SIGN on blot.
Immunoprecipitation. […]

[4] = target: T3, DC-SIGN on immature monocyte derived DC (Homo sapiens, UniProt Q9NNX6); assay: Fluorescent bead adhesion assay, immature DC; format: cell-based
T3 construct: Immature DC were cultured from monocytes in the presence of IL-4 and GM-CSF; endogenous in cells; host or cells: immature monocyte-derived dendritic cells
T3 sequence (Q9NNX6 1-404): T2 sequence (Q9NNX6 1-404)

granulocytes = assay: DC-SIGN-Fc adhesion to granulocytes
immature DC = format: cell-based, human
[5] = test system: K562 transfectants expressing DC-SIGN; format: cell-based, human
[6] = target: L-SIGN expressed by K562 transfectants (Homo sapiens, UniProt Q9H2X3); format: cell-based
L-SIGN expressed by K562 transfectants, sequence (Q9H2X3 whole entry, looked up): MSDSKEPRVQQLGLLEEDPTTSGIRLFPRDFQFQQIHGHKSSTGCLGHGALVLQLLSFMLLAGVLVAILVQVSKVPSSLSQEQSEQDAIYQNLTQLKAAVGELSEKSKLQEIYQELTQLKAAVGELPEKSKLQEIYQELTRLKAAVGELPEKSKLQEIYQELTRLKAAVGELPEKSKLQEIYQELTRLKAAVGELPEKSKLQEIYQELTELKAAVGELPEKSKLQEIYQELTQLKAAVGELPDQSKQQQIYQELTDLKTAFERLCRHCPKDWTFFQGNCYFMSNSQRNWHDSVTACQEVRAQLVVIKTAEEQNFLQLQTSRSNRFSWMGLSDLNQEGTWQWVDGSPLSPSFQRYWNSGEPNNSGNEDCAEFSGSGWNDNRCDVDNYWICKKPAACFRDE

mSIGNR1, sequence (Q8CJ91 whole entry): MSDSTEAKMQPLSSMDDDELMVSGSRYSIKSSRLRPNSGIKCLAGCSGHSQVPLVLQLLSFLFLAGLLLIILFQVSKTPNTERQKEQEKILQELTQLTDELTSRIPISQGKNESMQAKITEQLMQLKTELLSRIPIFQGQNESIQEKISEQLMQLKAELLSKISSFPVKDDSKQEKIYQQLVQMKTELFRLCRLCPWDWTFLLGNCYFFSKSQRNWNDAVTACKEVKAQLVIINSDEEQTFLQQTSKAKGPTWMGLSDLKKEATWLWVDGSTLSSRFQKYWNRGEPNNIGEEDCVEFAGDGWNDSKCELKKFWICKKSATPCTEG

## sialyl-Le^x
DC-SIGN-Fc [1]
  binding of DC-SIGN-Fc to coated ligand: completely abrogates the recognition; also recorded: lower binding affinity
mSIGNR1
  binding of ligand-coated beads to K562 mSIGNR1 transfectants: interacts

## CD11b: Lewis X-expressing CD11b captured from PMN lysate
[2]
  binding of ligand-coated beads to K562 DC-SIGN transfectants: interacted strongly
DC-SIGN-Fc [3]
  binding of DC-SIGN-Fc after α-1,3,4 Fucosidase treatment of the ligand: abrogated
DC-SIGN-Fc [1]; ELISA, ligand coated
  binding of DC-SIGN-Fc to coated ligand: high affinity binding

## α1->3, α1->6 mannotriose
[2]
  binding of ligand-coated beads to K562 DC-SIGN transfectants: bound similarly to the glycoconjugates as DC-SIGN-Fc
[4]
  binding of ligand-coated beads to immature DC: preferentially bound by DC-SIGN
DC-SIGN-Fc [1]
  binding of DC-SIGN-Fc to coated ligand: binds; also recorded: high affinity

## sialyl Lewis A
[2]
  binding of ligand-coated beads to K562 DC-SIGN transfectants: bind
mSIGNR1
  binding of ligand-coated beads to K562 mSIGNR1 transfectants: bind

## O=C(O)CN(CCOCCOCCN(CC(=O)O)CC(=O)O)CC(=O)O [EGTA]
granulocytes
  inhibition of DC-SIGN-Fc binding to granulocytes: blocked
[4]
  inhibition of ManLAM binding by immature DC: block
DC-SIGN-Fc [1]; coated SEA
  inhibition of DC-SIGN-Fc binding to SEA: completely inhibited
DC-SIGN-Fc [1]; coated whole mycobacteria
  inhibition of DC-SIGN-Fc binding to M. tuberculosis and M. bovis BCG: inhibited

## mannan
Immature DC
  inhibition of M. bovis BCG binding/infection of immature DC: blocked the infection to a similar level as the DC-SIGN antibodies
  inhibition of Neisseria IgtB binding to DC: partly inhibit
granulocytes
  inhibition of DC-SIGN-Fc binding to granulocytes: blocked
[2]
  binding of ligand-coated beads to K562 DC-SIGN transfectants: bind
  inhibition of gp120 binding to DC-SIGN: inhibited
[5]
  inhibition of internalization of M. bovis BCG by K562 DC-SIGN transfectants: blocked
[4]
  inhibition of ManLAM binding by immature DC: block
  inhibition of SEA binding to DC: strongly blocked
[6]
  binding of ligand-coated beads to K562 L-SIGN transfectants: bind
  inhibition of gp120 binding to L-SIGN: inhibited
DC-SIGN-Fc [1]
  binding of DC-SIGN-Fc to coated ligand: binds
  inhibition of DC-SIGN-Fc binding to M. tuberculosis and M. bovis BCG: inhibited
mSIGNR1
  binding of ligand-coated beads to K562 mSIGNR1 transfectants: bind
  inhibition of gp120 binding to mSIGNR1: inhibited

## […]-L-fucose
DC-SIGN-Fc [1]
  binding of DC-SIGN-Fc to coated ligand: lower binding affinity
